Target: mu opioid receptor (MOR) (Rattus norvegicus, UniProt P33535)
Assay: Stimulation of [35S]GTPγS binding, C6-MOR membranes
Type: biochemical
Conditions: 10 μM peptide compared to 10 μM DAMGO

mu opioid receptor (MOR), sequence (P33535 whole entry): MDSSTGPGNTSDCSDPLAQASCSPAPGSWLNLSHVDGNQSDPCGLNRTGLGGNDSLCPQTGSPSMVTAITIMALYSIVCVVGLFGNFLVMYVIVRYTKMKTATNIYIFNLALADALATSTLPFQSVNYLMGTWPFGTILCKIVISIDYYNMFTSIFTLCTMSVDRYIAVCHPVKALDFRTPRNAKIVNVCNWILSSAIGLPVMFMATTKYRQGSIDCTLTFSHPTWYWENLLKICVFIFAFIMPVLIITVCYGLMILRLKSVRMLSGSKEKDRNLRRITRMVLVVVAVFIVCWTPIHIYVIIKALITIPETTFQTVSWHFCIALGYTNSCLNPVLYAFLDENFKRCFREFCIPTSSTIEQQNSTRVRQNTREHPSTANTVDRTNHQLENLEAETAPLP

## NC(=O)[C@H](Cc1ccccc1)NC(=O)[C@H](Cc1ccccc1)NC(=O)[C@@H]1CCCN1C(=O)[C@@H](N)Cc1ccc(O)cc1 [endomorphin-2]
  MOR % max. stimulation of [35S]GTPγS binding: 49 ± 7%

Reference: publication PMC3241856 (ACS chemical biology, 2011)
